Results published in patent EP0367514A2, “Human leukocyte elastase inhibitors and methods for producing and using same” (UNIVERSITY OF KENTUCKY RESEARCH FOUNDATION, priority 1988, dated 1990).

Molecular target: T1, enzyme elastase, e.g., human leukocyte elastase (HLE) and porcine pancreatic elastase (PPE) (Homo sapiens, UniProt P08246)
T1 sequence (P08246 30-247): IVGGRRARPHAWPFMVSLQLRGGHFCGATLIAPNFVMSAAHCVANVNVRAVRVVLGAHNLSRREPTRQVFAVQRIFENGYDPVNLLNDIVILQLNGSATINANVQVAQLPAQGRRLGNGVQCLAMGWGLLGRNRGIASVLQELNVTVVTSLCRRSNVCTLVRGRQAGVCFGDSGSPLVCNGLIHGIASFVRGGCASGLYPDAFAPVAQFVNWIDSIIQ
Test: Elastase enzyme inhibitory studies (Ki of peptidyl carbamates)
Assay type: biochemical
Procedure: These studies are conducted to show the activities of some of the compounds of this invention as inhibitors of various forms of the enzyme elastase.
All enzyme assays are performed spectrophotometrically at 25 C using CARY 219 or 2200 Vanan Spectrometers. The activity of PPE is measured using 5-Boc-L-alinlne p-mtrophenyl ester (Boc-Ala-ONP), as the substrate and monitoring the absorbance at 347.5 nm (p-nitrophenol). The activity of HLE is measured using methoxy succinyl-L-analyl-L-alanyl L-prolyl-L-valine pnitroanilide (MeO-Suc-Ala-Ala-Pro-Val-NA), as the substrate and following the absorbance at 410 nm (pnitroaniline). Active inhibitors are tested against other serine dependent proteolytic enzymes such as tryps in and chymotryps in using their respective substrates. N-benzoyl-L-arginine ethyl ester, N-benzoyl-L-tyrosine ethyl ester and monitonng the absorbance at 253 and 256 respectively. […]

| Ki (inhibitor dissociation constant) [µM] | Structure (SMILES) |
| --- | --- |
| 0.02 | COC(=O)CCC(=O)NC(C)C(=O)NC(CCCCNC(=O)OCc1ccccc1)C(=O)N1CCCC1C(=O)CN(C(=O)Sc1nnnn1-c1ccccc1)C(C)C (stereo not drawn) [PC5, S-(1-phenyl-5-tetrazoyl)-N-[methoxysuccinyl-alanyl-(N∈-Carbobenzoxyl)lysylprolylmethyl]-N-isopropyl-thio carbamate] |
| 0.003 | COC(=O)CCC(=O)NC(CCCNC(=O)OCc1ccccc1)C(=O)NC(C)C(=O)N1CCCC1C(=O)CN(C(=O)Sc1nnnn1-c1ccccc1)C(C)C (stereo not drawn) [PC6, S-(1-phenyl-5-tetrazoyl)-N-[methoxysuccinyl-(N -carbobenzoyl)ornithylalanyl(prolylmethyl)-N-isopropylthio carbamate] |
